Measurements as given in publication PMC8291587, “Guanidine Derivatives: How Simple Structural Modification of Histamine H3R Antagonists Has Led to the Discovery of Potent Muscarinic M2R/M4R Antagonists” (ACS Chemical Neuroscience, 2021).
“And” between values parts separate entries of the source, which are not always exact repeats. Equal values may be shown once. Read-outs that look alike come from different tables or passages of the source.

How the values were obtained:
[1] = tested on: M2R/M3R; experiment: Ex vivo screening of muscarinic M2R/M3R antagonists on isolated guinea pig ileum (methacholine-induced contraction); conditions: methacholine as agonist
Procedure: Another group of guinea pig intestinal receptors able to regulate smooth muscle contraction is that of the muscarinic receptors, including M2R and M3R. All compounds were tested on the muscarinic receptors using the same animal model. This approach is similar to measuring histamine H1R antagonist activity. Methacholine was used as a receptor agonist, while 1,1-dimethyl-4-diphenylacetoxypiperidinium iodide (4-DAMP) was used as a reference M3R antagonist. As methacholine is not selective according to M2R and M3R, it is not possible to precisely specify which one was responsible for the effect observed on the tissue preparations. Some authors often attribute the results to the minor M3R subtype (gpM2R:M3R = 4:1 or 5:1), which is generally associated with the contractions,[38] but such an overinterpretation may be misleading, as indicated by our further hM1R-hM5R radioligand binding assay results shown in Table 2. […] These findings partially explain the influence of ADS10227 on the contractility of guinea pig ileum following electrical stimulation. […] In subsequent studies, we tried to clarify this.
Male guinea pigs, weighing 300–400 g, were euthanized by a blow to the neck. A 20–30 cm length of the distal ileum, apart from the terminal 5 cm, was rapidly removed and placed in phosphate buffer at room temperature (pH 7.4) containing (mM) NaCl (136.9), KCl (2.6), KH2PO4 (1.47), Na2HPO4 (9.58), and indomethacin (1 × 10^–6 mol/L)). The intraluminal content was rinsed, and the isolated intestine was cut into 1.5–2 cm segments. The preparations were mounted isotonically in a 20 mL organ bath filled with Tyrode’s buffer: composition (mM) NaCl (137), KCl (2.7), MgCl2·6H2O (1.0), CaCl2 (1.8), NaH2PO4·H2O (0.4), NaHCO3 (11.9), glucose (5.61), and indomethacin (3 × 10^–7 mol/L). The solution was continuously bubbled with a 95% O2:5% CO2 mixture and maintained at 37 °C under a constant load of 0.5 g (Hugo Sachs Hebel–Messvorsatz (Tl-2)/HF-modem; Hugo Sachs Elektronik, Hugstetten, Germany) connected to a pen recorder (Kipp & Zonen BD41, Delft, Holland). During an equilibration period of 40 min, Tyrode’s buffer was changed every 10 min. The first cumulative concentration–response curve was determined for methacholine (10 nM to 3 mM) at increasing concentrations spaced by 3- or 3.3-fold. The second to the fourth (or fifth) curves were measured in the presence of an increasing concentration of antagonist (incubation time 20 min). The pA2 values were calculated according to Arunlakshana and Schild.[37] Statistical analysis was carried out with the Students’ t test. In all tests, a p < 0.05 was considered statistically significant.

[2] = tested on: electrically stimulated guinea pig ileum; experiment: Decrease of contractility in electrically stimulated guinea pig ileum (-log EC50 determination); conditions: for EC50: Cavia porcellus, read-out: Decrease of contractility (-logEC50 ± sem) (converted); for intrinsic activity (maximal response as fraction of maximal response of the system): from concentration–response curves
Procedure: A standard ex vivo assay based on the relaxant response of histamine H3R agonists to electrically driven guinea pig ileum was used to test the influence of ADS compounds on the reduction of electrically evoked tissue contraction. […] The −log EC50 value for RAMH and ADS compounds were evaluated. […] Following this, we decided to evaluate the ADS series as potential M2R/M3R ligands on the isolated guinea pig ileum.
Male guinea pigs, weighing 300–400 g, were euthanized by a blow to the neck. A 20–30 cm length of the distal ileum, apart from the terminal 5 cm, was rapidly removed and placed in phosphate buffer at room temperature (pH 7.4) containing (mM) NaCl (136.9), KCl (2.6), KH2PO4 (1.47), Na2HPO4 (9.58), and indomethacin (1 × 10^–6 mol/L)). The intraluminal content was rinsed, and the isolated intestine was cut into 1.5–2 cm segments. The preparations were mounted between two platinum electrodes isotonically in a 20 mL organ bath filled with Krebs buffer: composition (mM) NaCl (118), KCl (5.6), MgSO4 (1.18), CaCl2 (2.5), NaH2PO4·H2O (1.28), NaHCO3 (25), glucose (5.55), and indomethacin (3 × 10^–7 mol/L). The solution was continuously bubbled with a 95% O2:5% CO2 mixture and maintained at 37 °C under a constant load of 1.0 g (Hugo Sachs Hebel–Messvorsatz (Tl-2)/HF-modem; Hugo Sachs Elektronik, Hugstetten, Germany) connected to a pen recorder (Kipp & Zonen BD41, Delft, Holland). During an equilibration period of 60 min, Krebs buffer was changed every 10 min. Following this, the preparations were continuously stimulated at 15–20 V, at a frequency of 0.1 Hz for a duration of 0.5 ms, with rectangular-wave electrical pulses (Grass Stimulator S-88; Grass Instruments Co., Quincy, Massachusetts, USA). […] Cumulative concentration–response curve was determined to RAMH or tested agonist (10 nM to 10 mM) at increasing concentrations spaced by 3- or 3.3-fold. The agonist potency is expressed as pD2 value (−log EC50) ± sem.

[3] = target: T1, hH3R (Homo sapiens, UniProt Q9Y5N1); experiment: hH3R radioligand displacement binding assay ([3H]-Nα-methylhistamine, HEK-293 cell membranes); conditions: [3H]-Nα-methylhistamine; HEK-293 membranes; read-out: hH3R -log(Ki) ± sem (converted)
T1 construct: expressed in transfected cells; membrane fractions
T1 sequence (Q9Y5N1 whole entry): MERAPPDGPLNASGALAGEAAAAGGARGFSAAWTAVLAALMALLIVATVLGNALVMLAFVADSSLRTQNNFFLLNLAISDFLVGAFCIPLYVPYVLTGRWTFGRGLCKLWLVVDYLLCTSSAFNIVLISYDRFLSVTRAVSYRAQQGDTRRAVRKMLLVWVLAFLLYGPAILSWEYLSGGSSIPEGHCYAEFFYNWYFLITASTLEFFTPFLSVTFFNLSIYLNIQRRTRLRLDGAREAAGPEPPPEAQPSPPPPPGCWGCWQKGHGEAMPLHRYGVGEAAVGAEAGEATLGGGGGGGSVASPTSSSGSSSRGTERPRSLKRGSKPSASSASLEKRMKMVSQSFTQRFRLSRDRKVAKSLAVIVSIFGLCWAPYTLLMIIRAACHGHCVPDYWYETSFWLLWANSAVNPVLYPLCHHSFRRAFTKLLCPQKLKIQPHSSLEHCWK
Procedure: [^3H]-N^α-Methylhistamine was used as a radiolabeled ligand.
The radioligand displacement binding assay was performed in membrane fractions of HEK-293 cells stably expressing hH3R. Cell cultivation and membrane preparation were performed according to Kottke et al.[43] […] The total assay volume was set to 200 μL. The compounds were tested in several appropriate concentrations between 100 μM and 0.1 nM. Pipetting was partly done by Freedom Evo (Tecan). […] The membrane fraction (20 μg/well), test compounds, and radiolabeled ligand were incubated for 90 min at 25 °C while shaking. The bound radioligand was separated from free radioligand by filtration through GF/B filters pretreated with 0.3% (m/v) polyethylenimine using a cell harvester. Radioactivity was determined by liquid scintillation counting using a MicroBeta Trilux (PerkinElmer). The data were obtained in duplicates in at least three independent experiments. Nonspecific binding was subtracted from the raw data to calculate specific-binding values. The evaluation was performed with GraphPad Prism 6.1 (San Diego, CA, USA) using nonlinear regression (one-site competition with a logarithmic scale). The Ki values were calculated from the IC50 values using the Cheng–Prusoff equation.[44] The statistical calculations were performed on −log Ki. The mean values and 95% confidence intervals were transformed to nanomolar concentrations.

[4] = electrically stimulated guinea pig ileum

Structure (SMILES)	M2R/M3R pA2 gpi ± sem [1]	EC50 [2, 4] [nM]	intrinsic activity (maximal response as fraction of maximal response of the system) [2, 4]	Ki [3] [nM]	EC50 [2] [nM]
N=C(N)N(CCCCN1CCN(C[C@H]2CC[C@@H](COc3ccccc3)CC2)CC1)Cc1ccccc1 [ADS10227, 1-{4-{4-{[4-(phenoxymethyl)cyclohexyl]methyl}piperazin-1-yl}but-1-yl}-1-(benzyl)guanidine]	6.97±0.09	132	0.97	5890	–
N=C(N)N(CCCCN1CCN(CCCCCCCOc2ccccc2)CC1)Cc1ccccc1 [ADS1017]	6.36 and 6.36 ±0.10	–	–	–	661
[H]/N=C(/N)N(CCCCN1CCN(CC2CCC(COc3ccccc3)CC2)CC1)Cc1ccc(C(F)(F)F)cc1 (stereo not shown) [ADS10239]	6.46±0.11	240	0.98	2340	–
